# According to US6376540B1, “Furan nitrone compounds” (Centaur Pharmaceuticals, Inc., priority 1996, dated 2002):
# Key:
# female Lewis rats = test: MBP-induced experimental allergic encephalomyelitis (EAE), behavioral score; assay type: in vivo, rat; conditions: 100 mg/kg po once a day from days 4 to 18
# Experimental: Experimental allergic encephalomyelitis (EAE) induced by injection of myelin basic protein (MBP) or MBP peptide fragments is reported to be a useful model for MS. See, for example, D. E. McFarlin et al., “Recurrent Experimental Allergic Encephalomyelitis in the Lewis Rat,” The Journal of Immunology, 113(2): 712-715 (1974).
# Acclimated female Lewis rats, (Harlan; 200-250 g) were used in this experiment since this strain of rat is genetically highly susceptible to EAE. In the experiment, 100 mg/kg of N-isopropyl-α-(2-sulfofuran-5-yl)nitrone sodium salt (prepared in Example 1 above) or a vehicle alone (control) was administered po once a day from days 4 to 18. On day 1, the rats received an injection of 100 μg of MBP peptide, from guinea pig brain, plus 500 μg of H37RA Mycobacterium in 0.10 ml complete Freund's adjuvant divided equally between the two hind foot-pads.
# The rats were evaluated on a 0-6 scale every day after day 7 until day 18 (effects usually begin day 10 and peak day 15). See E. Heber-Katz, “The Ups and Downs of EAE,” International Reviews Immunology, 9: 277-285 (1992). […] Results are expressed as a behavioral score ranging from 0 to 6.
# rats = test: N-nitro-L-arginine-induced spatial learning deficit; assay type: in vivo, rat; conditions: 10 mg/kg 30 min before each of nine doses of N-nitro-L-arginine (100 mg/kg)
# From the text: Treatment of rats with N-nitro-L-arginine, a nitric oxide synthase inhibitor, is known to cause a deficit in spatial learning. See, for example, G. A. Bohme et al., (1993) PNAS, 90:9191-9194. Rats treated with N-nitro-L-arginine wander aimlessly throughout their enclosure whereas untreated rats spend most of their time in the quadrant in which they are initially placed and stay away from the open area in the middle of the enclosure. This N-nitro-L-arginine-induced spatial learning deficit is used as a model for learning deficits caused by Alzheimer's disease and other dementias.
# In this experiment, 10 mg/kg of N-isopropyl-α-(2-sulfofuran-5-yl)nitrone sodium salt (prepared in Example 1 above) or a control was administered 30 min before each of nine doses of N-nitro-L-arginine (100 mg/kg. iip.). The wanderings of the rats were then monitored. […] In contrast, rats treated with N-nitro-L-arginine and N-isopropyl-α-(2-sulfofuran-5-yl)nitrone sodium salt show a preference for the area of the enclosure into which they were first placed and rarely cross the center of the enclosure as illustrated in FIG. 3C. This behavior is essentially the same as rats treated with a saline control (i.e., without N-nitroL-arginine)(see FIG. 3A).
# [1] = Free radical trapping, DCF oxidation, ferrous iron system; assay type: biochemical; conditions: 100 μM test compound, 100 μM FeSO4, 50 μM DCF in MEM, 37° C., 2 hrs
# Experimental: (§1) Dichlorofluorescein (DCF) is a compound that fluoresces when oxidized by reactive oxygen species (ROS), such as hydroxyl, peroxyl, or alkoxyl free radicals. Test compounds were evaluated for their ability to scavenge radicals by determining their capacity to prevent the DCF oxidation in a radical generating environment. Two radical generating systems were used: (i) ferrous iron and (ii) tert-butyl hydroperoxide. When ferrous iron is placed in normoxic solution, it autooxidizes to produce ROS in the form of hydroxyl radicals, superoxide anion free radicals, and hydrogen peroxide. Similarly, when tert-butyl hydroperoxide is placed in non-chelated media, trace metals catalyze its oxidation to yield alkoxy, peroxyl, and alkyl free radicals.
# (§2) In this assay, either 100 μM FeSO4 or 25 μM tert-butyl hydroperoxide were mixed with 50 μM DCF and 100 μM of the test compound in MEM and the mixture was incubated at 37° C. for 2 hrs. The fluorescence wavelengths measured were 485 nm for excitation and 530 nm for emission. In these tests, N-isopropyl-α-(2-sulfofuran-5-yl)nitrone sodium salt (prepared in Example 1 above) reduced fluorescence by 20% in the Fe^+2 assay and by 13% in the tert-butyl hydroperoxide assay. In comparison, a known free radical trap, N-tert-butyl-α-phenylnitrone (PBN) reduced fluorescence by 48% in the Fe^+2 assay and by 9% in the tert-butyl hydroperoxide assay.
# [2] = Free radical trapping, DCF oxidation, tert-butyl hydroperoxide system; assay type: biochemical; conditions: 100 μM test compound, 25 μM tert-butyl hydroperoxide, 50 μM DCF in MEM, 37° C., 2 hrs
# Experimental: as §1, §2
# Male Sprague-Dawley rats = test: Locomotor impairment due to Aβ(25-35), apomorphine-induced circling; assay type: in vivo, rat; conditions: one hour before and three hours post Aβ injection, apomorphine 0.5 mg/kg s.c. one week after
# Experimental: Male Sprague-Dawley rats (250-400 g) were given an ipsilateral injection of 20 μg of Aβ(25-35) into their substantia nigra. Prior to the injection, the rats were fasted overnight and then each received an oral treatment of N-isopropyl-α-(2-sulfofuran-5-yl)nitrone sodium salt (prepared in Example 1 above)(10-100 mg/kg) dissolved in aqueous 1% methyl cellulose or the vehicle alone, one hour before and three hours post the Aβ-peptide stereotaxic injection. One week after treatment, the rats were dosed s.c. with 0.5 mg/kg apomorphine (dissolved in 0.1% vitamin C in isotonic saline) and the circling reflex was monitored using a Rotorat computerized behavioral monitoring apparatus for the time period between 15 and 30 minutes of being placed in the arena. Impairment of the animals due to Aβ-peptide was determined by measuring the number of rotations over the 15 minute period. A higher number of rotations per period indicates more physical impairment.
smiles,measurement,setting,value
"CC(C)[N+]([O-])=Cc1ccc(S(=O)(=O)O)o1 [Example 1, N-Isopropyl-α-(2-sulfofuran-5-yl)nitrone]",effect of MBP on behavioral score (0-6 scale),female Lewis rats,completely counteracted the effect of MBP
same,spatial learning deficit caused by N-nitro-L-arginine,rats,prevents the spatial learning deficit
same,reduced fluorescence in the Fe^+2 assay,[1],20%
same,reduced fluorescence in the tert-butyl hydroperoxide assay,[2],13%
same,Rotations Over 15 Minute Period,Male Sprague-Dawley rats; Aβ(25-35) + 10 mg/kg oral,9
same,Rotations Over 15 Minute Period,Male Sprague-Dawley rats; Aβ(25-35) + 100 mg/kg oral,6
